Source: article PMC3954431 (Molecular cancer therapeutics, 2013)

Legend:
[1] = test system: W6/32 mAb (anti-human HLA class I antigen) binding; assay: Competition of W6/32 mAb binding; format: cell-based; conditions: Fig. S2B
[2] = test system: UN1 mAb binding to UN1-positive breast and gastric cancer tissues; assay: Competition of UN1 mAb binding to cancer tissues; design: species or system human; conditions: Fig. S3
UN1 mAb = assay: Surface plasmon resonance, UN1 mAb immobilized on CM5 chip; format: binding, murine; conditions: Biacore 3000, UN1 mAb immobilized on CM5 chip, peptide 0.1-2.5 mM
[3] = ELISA reactivity of immunized mice sera against G23 peptide; format: in vivo; conditions: sera of phage-immunized Balb/c mice
[4] = ELISA reactivity of immunized mice sera against scrambled peptide; format: in vivo; conditions: sera of phage-immunized Balb/c mice
wild type phage = assay: ELISA reactivity of immunized mice sera against wild type phage; format: in vivo; conditions: sera of phage-immunized Balb/c mice
[5] = Balb/c mice
[6] = sera, days 7-10 from the 6th boost, 5 animals/group, colorimetric assay, mean ± SEM

Row | competition of W6/32 mAb binding [1] | Sequence | competition of UN1 mAb binding to breast and gastric cancer tissues [2] | SPR signal (UN1 mAb) | serum reactivity against G23 peptide [3] | serum reactivity against scrambled peptide [4] | antibody response against the wild type phage (wild type phage) | health of immunized mice ([5]; 5 animals/group, i.p. phage immunization) | serum IL1-β, GSH and LDH levels versus normal ([5]; phage-immunized) | GSH [5, 6] [µM] | LDH [5, 6] [IU/L] | IL-1β ([5]; serum, days 7-10 from the 6th boost, 5 animals/group, ELISA, mean ± SEM) [pg/mL]
1 | did not compete the binding of W6/32 mAb | SFAATPHTCKLLDECVPLWPAEG [G23] | competed the binding of UN1 mAb to UN1-positive breast and gastric cancer tissues | – | – | – | – | – | – | – | – | –
2 | – | TCLAPDVPEPLSHCWAGETFKLA [scrambled peptide] | – | failed to give the SPR signal | – | – | – | – | – | – | – | –
3 | – | TPHTCKLLDECVPLW [phagotope 2/165] | competed the binding of UN1 mAb to UN1-positive breast and gastric cancer tissues | – | specific immune response against the UN1 mimotope G23 peptide | unreactive against the scrambled peptide | strong and comparable antibody response against the wild type phage | appeared healthy and did not show any ill-effect | in the range of normality | 10.1 ± 0.9 | 52.9 ± 15.4 | 58.2 ± 0.3
